Experimental data published in patent US6528068B1, “Cosmetic composition containing N-acyl neutral amino acid esters of lower alcohols” (Ajinomoto Co., Inc., priority 1997, dated 2003).

Columns and labels:
[1] = solids; cited from earlier work
[2] = Jap. pat. Publn. (kokoku); cited from earlier work
[3] = Evaluation of pigment dispersibility (wetting point / flowing point); format: physicochemical; conditions: difference between wetting point and flowing point; liquid paraffin added to TiO2 containing 10% by weight of oily material
Procedure: With respect to various oily materials including some N-acylamino acid esters of the present invention, powdery compositions formed by blending each oily material with a powder pigment of titanium dioxide (TiO2) were evaluated or examined from various aspects. This will be described in detail below.
The minimum value in terms of parts by weight in which the powder was put together was defined as wetting point. […] Liquid paraffin was further added thereto from the wetting point, and the minimum numeral of parts by weight of the liquid paraffin in which the mixture came to show a fluidity was defined as flowing point.
The smaller the difference between the wetting point and the flowing point, the better the dispersibility (“Science of Fragrance”, published by Fragrance Journal in 1990, p. 390). Accordingly, the index of pigment dispersibility was evaluated in terms of the difference between the wetting point and the flowing point. That is, in Table 47, when the difference between the wetting point and the flowing point was up to 35, it was rated as ∘∘; when the difference was between 36 and 45, it was rated as ∘; and when the difference was between 46 and 55, it was rated as Δ; and when the difference was 56 or more, it was rated as ×.

[4] = Examination of solubility of a UV-A absorbent in various oily materials; conditions: amount of “Soft Shade DH” dissolved in 100 g of the oily material

Compound	solubility in water and oil [1]	compatibility with an oily solvent [2]	Pigment dispersibility [3]	Solubility [4]
COc1ccc(C(=O)CC(=O)c2ccc(C(C)(C)C)cc2)cc1 [4-t-butyl-4′-methoxybenzoylmethane]	sparingly soluble in water and oil			
CCCCC(CC)C(=O)N(C)CCC(=O)OC (stereo not drawn) [N-2-ethylhexanoyl-N-methyl-β-alanine.methyl ester]		poor		
CCCCCCCCCCCC(=O)N(C)CC(=O)OCCCCCCCCCCCCCCCC(C)C [Reference Synthesis Example 1, N-lauroylsarcosine isostearyl ester]			Δ (when the difference was between 46 and 55, it was rated as Δ)	X (The amount of the compound dissolved in 100 g of the oily material is less than 5 g.)
CCCCCCCCCCCC(=O)N(C)CC(=O)OCC(CCCCCCCC)CCCCCCCCCC (stereo not shown) [Reference Synthesis Example 2, N-lauroylsarcosine octyl dodecyl ester]				X (The amount of the compound dissolved in 100 g of the oily material is less than 5 g.)
CCCCCCCCCCCC(=O)N(C)CC(=O)OC(C)C [Synthesis Example 14, N-laurolysarcosine isopropyl ester]			◯◯	◯ (It is at least 10 g.)
CCCCCCCCCCCC(=O)N(C)CCC(=O)OC(C)C [Synthesis Example 15, N-lauroyl-N-methyl-β-alanine isopropyl ester]			◯◯	◯ (It is at least 10 g.)
CCCCCCCCCCCCCCCCCC(=O)OCC(O)CO (stereo not shown) [glycerol stearate]				X (The amount of the compound dissolved in 100 g of the oily material is less than 5 g.)
CCCCCCCCCCCCCC(=O)OC(C)C [isopropyl myristate]			Δ (when the difference was between 46 and 55, it was rated as Δ)	X (The amount of the compound dissolved in 100 g of the oily material is less than 5 g.)
CCCCCCCCCCCC(=O)N[C@@H](CCC(=O)OCC(CCCCCCCC)CCCCCCCCCC)C(=O)OCC(CCCCCCCC)CCCCCCCCCC (stereo partly shown) [lauroylglutamic acid octyldodecyl diester]			Δ (when the difference was between 46 and 55, it was rated as Δ)	
